Reference: PMC6413231, “o-Vanillin Derived Schiff Bases and Their Organotin(IV) Compounds: Synthesis, Structural Characterisation, In-Silico Studies and Cytotoxicity” (International Journal of Molecular Sciences, 2019)
Where two headings read alike, the source gives them in different places.

Columns and labels:
[1] = system: BE2-C (neuroblastoma) cancer cells; assay: MTT growth inhibition assay, BE2-C; type: cell-based; conditions: 72 h, ± standard error, read-out: Growth Inhibition Concentration, GI50
Experimental: (§1) The Schiff bases and their organotin(IV) compounds were screened for in vitro cytotoxicity against a panel of 12 cancer cell lines: EJ-28 (muscle invasive bladder), RT-112 (minimum-invasive bladder), HT29 (colon), U87 and SJ-G2 (glioblastoma), MCF-7 (breast), A2780 (ovarian), H460 (lung), A431 (skin), DU145 (prostate), BE2-C (neuroblastoma), MIA (pancreatic) and one normal breast cell line (MCF-10A) using the MTT metabolic assay (Figure 6). After 72 h of incubation, a dose-dependent […] effect towards the cancer cell lines was measured at very low micromolar (µM) concentrations of the compounds. The growth inhibition concentration of the Schiff bases and their organotin(IV) compounds required to inhibit 50% cell proliferation relative to the cells that were treated with DMSO (control) are given in Table 2. The stability of these compounds was assessed in DMSO as well as in a mixture of DMSO-H2O. The absorbance obtained from UV-vis spectroscopy analysis was monitored for 72 h, and an unchanged pattern in the spectra was indicative that the compounds were stable in both the solvent systems tested.
(§2) For HT29 (colon), U87 and SJ-G2 (glioblastoma), MCF-7 (breast), A2780 (ovarian), H460 (lung), A431 (skin), Du145 (prostate), BE2-C (neuroblastoma), MIA (pancreas) cell lines and one normal breast cell line, MCF-10A (normal breast), the MTT assays were performed using the following method:
(§3) Stock solutions were prepared as follows and stored at −20 °C: Trial compounds were stored as 10 mM solutions in DMSO. All cell lines were cultured in a humidified atmosphere 5% CO2 at 37 °C. The cancer cell lines were maintained in Dulbecco’s modified Eagle’s medium (DMEM) (Trace Biosciences) supplemented with 10% foetal bovine serum, 10 mM sodium bicarbonate, penicillin (100 IU/mL), streptomycin (100 μg/mL) and glutamine (4 mM). The normal cell line, MCF-10A was cultured in DMEM:F12 (1:1) cell culture media, 5% heat inactivated horse serum, supplemented with penicillin (50 IU/mL), streptomycin (50 μg/mL), 20mM Hepes, L-glutamine (2 mM), epidermal growth factor (20 ng/mL), hydrocortisone (500 ng/mL), cholera toxin (100 ng/mL) and insulin (10 μg/mL).
(§4) Cells in logarithmic growth were transferred to 96-well plates. Cytotoxicity was determined by plating cells in duplicate in 100 μL medium at a density of 2500–4000 cells/well. On day 0 (24 h after plating), when the cells were in logarithmic growth, 100 μL medium, with or without the test agent, was added to each well. After 72 h drug exposure, growth inhibitory effects were evaluated using the MTT (3-[4,5-dimethylthiazol-2-yl]-2,5-diphenyltetrazolium bromide) assay and absorbance read at 540 nm. Percentage growth inhibition was determined at a fixed drug concentration of 25 μM. A value of 100% was indicative of complete cell growth inhibition. Those analogues showing appreciable percentage growth inhibition underwent further dose-response analysis allowing for the calculation of a GI50 value. This value is the drug concentration at which cell growth is 50% inhibited based on the difference between the optical density values on day 0 and those at the end of drug exposure.

H460 (lung) cancer cells = assay: MTT growth inhibition assay, H460; type: cell-based; conditions: ± standard error, read-out: Growth Inhibition Concentration, GI50
Experimental: as §1, §2, §3, §4

[2] = system: A2780 (ovarian) cancer cells; assay: MTT growth inhibition assay, A2780; type: cell-based; conditions: 72 h, ± standard error, read-out: Growth Inhibition Concentration, GI50
Experimental: as §1, §2, §3, §4

[3] = system: EJ-28 (muscle invasive bladder) cancer cells; assay: MTT cytotoxicity assay, EJ-28; type: cell-based, human; conditions: EJ-28 cells, 72 h, ± standard error, read-out: Growth Inhibition Concentration, GI50
Experimental: as §1
(§5) The inhibitory effect of the synthesised compounds on the growth of bladder (EJ-28 and RT-112) cancer cells was evaluated by MTT assay. […] RT-112 and EJ-28, human bladder cancer cell lines used in this study (ATCC, Manassas, VA, USA) were cultured in RPMI-1640 (High glucose) medium supplemented with 10% fetal bovine serum containing 1% penicillin. The cells were cultured at 37 °C in a humidified atmosphere of 5% CO2 in air. Cells were seeded in 96-well plates at 6000 cells per well for 24 h, then they were treated with different concentrations of compounds for 72 h. The medium was subsequently removed and the wells were washed with 200 µL of phosphate buffer saline. Aliquots of 20 µL of 3-(4,5-dimethylthiazol-2-yl)-2,5-diphenyltetrazolium bromide (MTT) was added to each well and incubated for 4 h at 37 °C. Aliquots of 200 µL of media was then removed from each well and 200 µL of DMSO was added. Optical density (OD) was measured using an ELISA plate reader at 570 nm. Control wells (100% viability), containing media and DMSO, were included in all the experiments. All data points represented an average of triplicate assays. Cytotoxicity was expressed as CD50, i.e., the concentration that reduced the absorbance of treated cells by 50% with reference to the control (untreated cells).

[4] = system: MIA (pancreatic) cancer cells; assay: MTT growth inhibition assay, MIA; type: cell-based; conditions: 72 h, ± standard error, read-out: Growth Inhibition Concentration, GI50
Experimental: as §1, §2, §3, §4

[5] = system: U87 (glioblastoma) cancer cells; assay: MTT growth inhibition assay, U87; type: cell-based; conditions: 72 h, ± standard error, read-out: Growth Inhibition Concentration, GI50
Experimental: as §1, §2, §3, §4

[6] = system: B-DNA (PDB ID: 1BNA) dodecamer d(CGCGAATTCGCG)2; set-up: method as in PMID 27649452; conditions: comparison value for cisplatin; cited from earlier work
[7] = system: RT-112 (minimum-invasive bladder) cancer cells; assay: MTT cytotoxicity assay, RT-112; type: cell-based, human; conditions: RT-112 cells, 72 h, ± standard error, read-out: Growth Inhibition Concentration, GI50
Experimental: as §1, §5

A431 (skin) cancer cells = assay: MTT growth inhibition assay, A431; type: cell-based; conditions: ± standard error, read-out: Growth Inhibition Concentration, GI50
Experimental: as §1, §2, §3, §4

[8] = system: SJ-G2 (glioblastoma) cancer cells; assay: MTT growth inhibition assay, SJ-G2; type: cell-based; conditions: MTT, 72 h, ± standard error, read-out: Growth Inhibition Concentration, GI50
Experimental: as §1, §2, §3, §4

[9] = system: MCF-7 (breast) cancer cells; assay: MTT growth inhibition assay, MCF-7; type: cell-based; conditions: 72 h, ± standard error, read-out: Growth Inhibition Concentration, GI50
Experimental: as §1, §2, §3, §4

[10] = system: Du145 (prostate) cancer cells; assay: MTT growth inhibition assay, Du145; type: cell-based; conditions: ± standard error, read-out: Growth Inhibition Concentration, GI50
Experimental: as §1, §2, §3, §4

[11] = system: HT29 (colon) cancer cells; assay: MTT growth inhibition assay, HT29; type: cell-based; conditions: ± standard error, read-out: Growth Inhibition Concentration, GI50
Experimental: as §1, §2, §3, §4

[12] = system: MCF-10A (normal breast) cell line; assay: MTT growth inhibition assay, MCF10A; type: cell-based; conditions: Homo sapiens, MCF-10A, MCF10A normal breast cells, 72 h, ± standard error, read-out: Growth Inhibition Concentration, GI50
Experimental: as §1, §2, §3, §4

In the case of `N.N.[Cl][Pt][Cl]` [Cisplatin, reference compound], the GI50 [1] is reported as 1900 ± 200 nM, the GI50 (H460 (lung) cancer cells; 72 h) is reported as 900 ± 200 nM and the GI50 [2] is reported as 1000 ± 100 nM. It also gave a GI50 [3] of 3970 ± 480 nM, a GI50 [4] of 8000 ± 1000 nM and a GI50 [5] of 4000 ± 1000 nM. For the same compound, the “lowest binding energy (docking with DNA)” value [6] was -8.65 kcal/mol, the GI50 [7] was 3560 ± 880 nM and the GI50 (A431 (skin) cancer cells; 72 h) was 2400 ± 300 nM. It also gave a GI50 [8] of 400 ± 100 nM, a GI50 ([9]; MCF-7 cells) of 6500 ± 800 nM and a GI50 ([10]; 72 h) of 1200 ± 100 nM. It also gave a GI50 ([11]; 72 h) of 11000 ± 2000 nM.
With `COc1cccc(/C=N/NC(=S)SCc2ccccc2)c1O` [SBoVaH, S-Benzyl-β-N-(2-hydroxy-3-methoxybenzylmethylene) Dithiocarbazate] the GI50 ([1]; Homo sapiens, BE(2)-C) was 2800 ± 200 nM, the GI50 (H460 (lung) cancer cells; Homo sapiens, NCI-H460, 72 h) was 3300 ± 210 nM and the GI50 ([2]; Homo sapiens) was 3000 ± 60 nM. It also gave a GI50 ([3]; Homo sapiens) of 3100 ± 200 nM, a GI50 ([4]; Pancreatic cancer cell) of 4500 ± 250 nM and a GI50 ([5]; Homo sapiens, U-87 MG) of 3100 ± 260 nM. For the same compound, the GI50 [12] was 3000 ± 70 nM, the GI50 ([7]; Homo sapiens) was 3700 ± 570 nM and the melting point was 173 to 174 °C. For the same compound, the GI50 (A431 (skin) cancer cells; Homo sapiens, A-431, 72 h) was 3000 ± 150 nM, the GI50 [8] was 2400 ± 260 nM and the GI50 ([9]; Homo sapiens, MCF7, MCF-7 cells) was 2500 ± 120 nM. For the same compound, the GI50 ([10]; Homo sapiens, DU-145, 72 h) was 3400 ± 300 nM and the GI50 ([11]; Homo sapiens, HT-29, 72 h) was 2200 ± 33 nM.
